From patent US20010014357A1, “Citrus peel extract as inhibitor of ACYL coa-cholesterol-o-acyltransferase, inhibitor of macrophage-lipid complex accumulation on the arterial wall and preventive or treating agent for hepatic diseases” (priority 1997, published 2001)

Tests used:
[1] = tested on: macrophage-lipid complex accumulated on the arterial endothelium; test: Analysis for fatty streak (macrophage-lipid complex) in the main artery of cholesterol-fed rabbits; type: in vivo, New Zealand White rabbits; settings: 1% cholesterol diet plus 0.1% flavonoid or 1 mg/kg Lovastatin; for area of macrophage-lipid complex accumulated on the arterial endothelium compared to the control group / M-L (macrophage-lipid) complex area: 6 weeks; for layer of macrophage-lipid complex observed on the arterial endothelium (FIGS. 1B-1D): control shows a thick layer; for M-L (macrophage-lipid) complex area: Oil Red O stained area as proportion of total arterial area, control group 35
Text: RC4 diet comprises 7.6% moisture, 22.8% crude protein, 2.8% crude fat, 8.8% crude ash, 14.4% crude cellulose and 43.6% soluble nitrogen-free substances. The rabbits were bred for 6 weeks while being allowed free access to the diets and water. The rabbits bred in (Step 1) were sacrificed and their chest were incised. The main artery was cut out therefrom in a length of about 5 cm downward from the site 1 cm above the aortic valve and the fat surrounding the main artery was removed. The main artery was incised in the middle along the longitudinal axis and pinned to a dish. The moist artery was photographed and, then, staining of fatty streak was carried out in accordance with the method of […]., et al.(J. Lab. Clin. […] A part of the incised main artery was washed three times by 2 min. with anhydrous propylene glycol and stained for 30 min. with a saturated solution of Oil Red O (ORO, Sigma Co.) dissolved in propylene glycol. Thereafter, the artery was washed twice by 3 min. with 85% propylene glycol to remove remaining staining solution and, then washed with physical saline. The artery was photographed and the photograph was traced. The area of stained region (fatty streak region) was determined with an image analyzer (LEICA, Q-600, Germany) and its proportion(%) to the total arterial area was calculated. On the other hand, the other part of the main artery was stained in accordance with hematoxylin-eosin (H&E) and Masson's trichrome staining methods and observed under a microscope to confirm whether the macrophage-lipid complexes were accumulated in the intima, internus, elastic lamina and media.

[2] = tested on: hepatic cells (fatty liver); test: Histopathological observation of the livers of cholesterol-fed rabbits; type: in vivo, New Zealand White rabbits; settings: 1% cholesterol diet plus 0.1% flavonoid or 1 mg/kg Lovastatin, eight weeks, H&E stain
Experimental: The same procedure as in (Step 1) was repeated except that 40 three-month-old New Zealand White rabbits (Yeonam Horticulture and Animal Husbandry College, Korea) each weighing about 2.5 to 2.6 kg were used in place of the rats, and the rabbits were fed for eight weeks with four different diets, i.e., RC4 diet containing 1% cholesterol (Control group); 1% cholesterol plus 1 mg/kg Lovastatin® (Comparative group); 1% cholesterol plus 0.1% hesperidin; and 1% cholesterol plus 0.1% naringin, respectively.
Thereafter, the livers were separated from the rabbits and the histopathological observations were carried out as follows.
The rabbits were anesthetized with an intramuscular injection of ketamine (75 mg/kg) and subjected to an abdominal incision. […] The fixed liver was washed sufficiently with water, dehydrated stepwise with 70%, 80%, 90% and 100% ethanol and, then, embedded in paraffin. The embedded liver was sectioned in 4 μm thickness with a microtome and stained with hematoxylin and eosin. The stained liver specimen was made transparent with xylene, mounted with permount, and then observed under a microscope to confirm the presence of lesions.

[3] = Blood total cholesterol and triglyceride levels in cholesterol-fed rabbits; type: in vivo, New Zealand White rabbits; settings: 1% cholesterol diet plus 0.1% flavonoid or 1 mg/kg Lovastatin, 6 weeks
Experimental: RC4 diet comprises 7.6% moisture, 22.8% crude protein, 2.8% crude fat, 8.8% crude ash, 14.4% crude cellulose and 43.6% soluble nitrogen-free substances. The rabbits were bred for 6 weeks while being allowed free access to the diets and water. Further, blood samples were taken from the rabbits and total cholesterol and triglyceride levels were determined in accordance with the same procedure in Example 5.

[4] = Serum GOT and GPT levels in rats on a high-cholesterol diet; type: in vivo, Sprague-Dawley rats; settings: 1% cholesterol diet plus 0.02% naringin or citrus peel extract (0.04% hesperidin equivalent), six weeks
Text: 30 four-week-old Sprague-Dawley rats (Taihan laboratory animal center, Korea) each weighing about 90 to 110 g were evenly divided into three dietary groups by a randomized block design. The rats of the three groups were fed with three different high-cholesterol diets, i.e., AIN-76 laboratory animal diet (ICN Biochemicals, Cleveland, Ohio, U.S.A.) containing 1% cholesterol(Control group), 1% cholesterol plus 0.02% naringin, and 1% cholesterol plus citrus peel extract prepared in Example 2(1) in an amount equivalent to 0.04% hesperidin, respectively.
The effect of administering naringin and citrus peel extract to rats on the function of the liver was examined as follows.
Blood samples were taken from the rats of the three dietary groups and serum GOT (glutamate-oxaloacetate transaminase) and GPT (glutamate-pyruvate transaminase) levels were determined in accordance with the method of Reitman and Frankel (Reitman, S. and J. S. Frankel, Am. J. Clin. Pathol., 28, 56 (1956)). GOT and GPT are synthesized in the liver and heart, and released into blood stream upon the damage of these organs. Accordingly, GOT and GPT are representative markers of the liver-function and high serum GOT and GPT levels mean severe damage of the liver.

[5] = Serum GOT, GPT and γGTP levels in men given oral naringin; type: in vivo, human; settings: person, oral 10 mg/kg daily, day 68
Experimental: Naringin was orally administered to a person at a daily dose of 10 mg/kg for 68 days and serum GOT, GPT and γGTP levels were determined just before the administration (day 0), and 45 and 68 days after the administration (day 45 and day 68), respectively. Consequently, serum GOT- levels at day 45 and day 68 decreased by 17%, respectively, in comparison to that of day 0. Serum GPT levels at day 45 and day 68 decreased by 15% and 19%, respectively, in comparison to that of day 0. Further, serum γGTP levels at day 45 and day 68 decreased by 25% and 51%, respectively, in comparison to that of day 0.
On the other hand, naringin was orally administered to a person, who had drunk alcoholic beverages habitually in an amount of 100 cc per day, at a daily dose of 6 mg/kg for 30 days and serum γGTP level was determined just before the administration (day 0) and 30 days after the administration (day 30). Consequently, initial serum γGTP level at day 0 was 129 IU/l, while that of day 30 decreased to 69 IU/l which is within the normal range.

Row | SMILES | area of macrophage-lipid complex accumulated on the arterial endothelium compared to the control group [1] | layer of macrophage-lipid complex observed on the arterial endothelium (FIGS. 1B-1D) [1] | microscopic features of the hepatic cells (FIGS. 2B-2D) [2] | M-L (macrophage-lipid) complex area [1] [%] | Total cholesterol [3] [mg/dL] | Triglyceride [3] [mg/dL] | serum GOT level, lower than that of the control group [4] | serum GPT level, lower than that of the control group [4] [%] | decrease of serum γGTP level in comparison to day 0 [5] [%]
1 | CC[C@H](C)C(=O)O[C@H]1C[C@@H](C)C=C2C=C[C@H](C)[C@H](CC[C@@H]3C[C@@H](O)CC(=O)O3)[C@H]21 [Lovastatin, reference compound] | decreased significantly | no or very thin layers | irregularly arranged and enlarged and a large amount of fat is deposited therein | – | – | – | – | – | –
2 | COc1ccc([C@@H]2CC(=O)c3c(O)cc(O)cc3O2)cc1O [hesperetin] | decreased significantly | – | – | 13 | 1150 | 41 | – | – | –
3 | COc1ccc([C@@H]2CC(=O)c3c(O)cc(O[C@@H]4O[C@H](CO[C@@H]5O[C@@H](C)[C@H](O)[C@@H](O)[C@H]5O)[C@@H](O)[C@H](O)[C@H]4O)cc3O2)cc1O [hesperidin] | decreased significantly | no or very thin layers | normal and the deposition of fat is not observed | 13.5 | 1130 | 40 | – | – | –
4 | O=C1C[C@@H](c2ccc(O)cc2)Oc2cc(O)cc(O)c21 [naringenin] | decreased significantly | – | – | – | – | – | – | – | –
5 | C[C@@H]1O[C@@H](O[C@H]2[C@H](Oc3cc(O)c4c(c3)O[C@H](c3ccc(O)cc3)CC4=O)O[C@H](CO)[C@@H](O)[C@@H]2O)[C@H](O)[C@H](O)[C@H]1O [naringin] | decreased significantly | no or very thin layers | normal and the deposition of fat is not observed | – | – | – | about 30% | ~10 | 51
